The target in the assay is T1, AURKB (Aurora B) (Homo sapiens, UniProt Q96GD4).
T1 construct: purchased Thermo Fisher Scientific (Life Technologies) SelectScreen
The experiment in a line: SelectScreen Z'LYTE. The class given is biochemical. The essentials:
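Compound tested in SelectScreen activity assays, Z'LYTE for CSF1R, CDK1/cyclin B and MAP2K6 and Adapta for CAMK1. ATP for CAMK1 was listed as 10, and Km app was used for CSF1R. Results are expressed in percent.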

This is an account of results in article PMC6934184, “Selective DNA-PKcs inhibition extends the therapeutic index of localized radiotherapy and chemotherapy” (The Journal of Clinical Investigation, 2019).

One may read the inhibition as the share of the control response that was lost under treatment. Read a high inhibition as strong suppression.

Each structure is given as a SMILES string.

T1 sequence (Q96GD4 whole entry): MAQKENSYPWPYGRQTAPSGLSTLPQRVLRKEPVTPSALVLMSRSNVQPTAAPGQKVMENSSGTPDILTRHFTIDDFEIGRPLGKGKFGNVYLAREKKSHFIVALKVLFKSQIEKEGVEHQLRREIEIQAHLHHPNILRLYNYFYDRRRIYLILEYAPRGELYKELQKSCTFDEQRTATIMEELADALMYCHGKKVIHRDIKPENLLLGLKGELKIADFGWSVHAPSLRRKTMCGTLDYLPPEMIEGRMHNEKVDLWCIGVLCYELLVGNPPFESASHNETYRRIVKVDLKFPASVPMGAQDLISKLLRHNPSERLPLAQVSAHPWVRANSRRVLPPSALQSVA

`CN(C(=O)CN1CCOCC1)c1ccc2sc3c(-c4cccc5c(=O)cc(N6CC7CCC(C6)O7)oc45)cccc3c2c1` [NU5455] showed an inhibition at 1 µM of 1.7%.
